According to US8735417B2, “Aminopyrimidines as Syk inhibitors” (Merck Sharp & Dohme Corp., priority 2009, dated 2014):

target: T1, recombinant human GST-SYK (Homo sapiens, UniProt P43405); assay: Homogeneous Time-Resolved Fluorescence (HTRF) assay for the recombinant human SYK enzyme; type: biochemical; details: recombinant human GST-SYK 5 pM, ATP 25 μM, 10-dose titration; read-out: rhSYK Activity (IC50)
T1 construct: purchased Carna Biosciences 08-176
Description: Homogeneous Time-Resolved Fluorescence (HTRF) Assay for the Recombinant Human SYK Enzyme:
A recombinant GST-hSYK fusion protein was used to measure potency of compounds to inhibit human SYK activity. The recombinant human GST-SYK (Carna Biosciences #08-176) (5 pM final concentration) was incubated with various concentrations of the inhibitor diluted in DMSO (0.1% final concentration) for 10 minutes at room temperature in 15 mM Tris-HCl (pH 7.5), 0.01% tween 20, 2 mM DTT in 384 well plate format. To initiate the reaction the biotinylated substrate peptide (250 nM final concentration) that contains the phosphorylation site for SYK was added with magnesium (5 mM final concentration) and ATP (25 μM final concentration). Final volume of the reaction was 10 μL. Phosphorylation of the peptide was allowed to proceed for 45′ at room temperature. To quench the reaction and detect the phosphorylated product, 2 nM of a Europium-atiti-phosphotyrosine antibody (Perkin Elmer #AD0161) and 70 nM SA-APC (Perkin-Elmer #CR130-100) were added together in 15 mM Tris pH 7.5, 40 mM EDTA, 0.01% tween 20. Final volume of the quenching solution was 10 μL. The resulting HTRF signal was measured after 30 minutes on a EnVision (Perkin-Elmer) reader using a time-resolved fluorescence protocol.

IC50 [µM]	SMILES
1 to 10	CC(C)(C)OC(=O)NCC1CCN(c2ncc(-c3cccc(Nc4nccc(C(F)(F)F)n4)c3)s2)CC1 [Example 138]
≤ 0.1	CSCCNc1ncc(-c2cccc(Nc3nccc(C(F)(F)F)n3)c2)s1 [Example 44]
≤ 0.1	Cc1cc(Nc2nccc([S+](C)[O-])n2)cc(-c2cnc(N3CCCNC(=O)C3)s2)c1 (centres unmarked) [Example 223, 4-[5-(3-methyl-5-{[4-(methylsulfinyl)pyrimidin-2-yl]amino}phenyl)-1,3-thiazol-2-yl]-1,4-diazepan-2-one]
≤ 0.1	Cc1cc(Nc2nccc(C3CCCCC3)n2)cc(-c2cnc(N3CCCNC(=O)C3)s2)c1 [Example 196, 4-(5-{3-[(4-cyclohexylpyrimidin-2-yl)amino]-5-methylphenyl}-1,3-thiazol-2-yl)-1,4-diazepan-2-one]
≤ 0.1	Cc1cnc(Nc2cc(C)cc(-c3cnc(N4CCCNC(=O)C4)s3)c2)nc1 [Example 203]
≤ 0.1	Cc1cc(Nc2nccc(C(F)(F)F)n2)cc(-c2cnc(NCc3cc(C)on3)s2)c1 [Example 97]
≤ 0.1	Cc1cc(Nc2nccc(C(F)(F)F)n2)cc(-c2cnc(NCCc3nccs3)s2)c1 [Example 109]
≤ 0.1	OCCCNc1ncc(-c2cccc(Nc3nccc(C(F)(F)F)n3)c2)s1 [Example 15]
≤ 0.1	Cc1cc(Nc2nccc(C(F)(F)F)n2)cc(-c2cnc(NCc3cnsn3)s2)c1 [Example 105]
≤ 0.1	OCC1CCCCN1c1ncc(-c2cccc(Nc3nccc(C(F)(F)F)n3)c2)s1 (centres unmarked) [Example 132]
≤ 0.1	Cc1cc(Nc2nccc(OCCO)n2)cc(-c2cnc(N3CCCNC(=O)C3)s2)c1 [Example 218]
≤ 0.1	FC(F)(F)c1ccnc(Nc2cccc(-c3cnc(NCc4cncnc4)s3)c2)n1 [Example 31]
0.1 to 1	Cc1ccnc(Nc2cccc(-c3cnc(N4CCC(C(=O)O)CC4)s3)c2)n1 [Example 193, 1-(5-{3-[(4-methylpyrimidin-2-yl)amino]phenyl}-1,3-thiazol-2-yl)piperidine-4-carboxylic acid]
≤ 0.1	FC(F)(F)c1ccnc(Nc2cccc(-c3cnc(NCc4cccc(-n5cccn5)c4)s3)c2)n1 [Example 76]
≤ 0.1	Cc1cc(Nc2nccc(C3CCCC3)n2)cc(-c2cnc(N3CCCNC(=O)C3)s2)c1 [Example 197, 4-(5-{3-[(4-cyclopentylpyrimidin-2-yl)amino]-5-methylphenyl}-1,3-thiazol-2-yl)-1,4-diazepan-2-one]
1 to 10	Cc1cc(Nc2nccc(C(F)(F)F)n2)cc(-c2cnc(N3CCC(OCC(=O)NC(C)(C)C)CC3)s2)c1 [Example 145]
≤ 0.1	COc1nc(Nc2cc(C)cc(-c3cnc(N4CCCNC(=O)C4)s3)c2)ncc1Cl [Example 210, 4-(5-{3-[(5-chloro-4-methoxypyrimidin-2-yl)amino]-5-methylphenyl}-1,3-thiazol-2-yl)-1,4-diazepan-2-one]
≤ 0.1	Cc1cc(Nc2ncc(F)cn2)cc(-c2cnc(N3CCCNC(=O)C3)s2)c1 [Example 201]
0.1 to 1	NC(=O)C1CCN(c2nc(-c3cccc(Nc4nccc(C(F)(F)F)n4)c3)cs2)CC1 [Example 230, 1-[4-(3-{[4-(trifluoromethyl)pyrimidin-2-yl]amino}phenyl)-1,3-thiazol-2-yl]piperidine-4-carboxamide]
≤ 0.1	O=C(CO)Nc1ncc(-c2cccc(Nc3nccc(C(F)(F)F)n3)c2)s1 [Example 183, 2-hydroxy-N-[5-(3-{[4-(trifluoromethyl)pyrimidin-2-yl]amino}phenyl)-1,3-thiazol-2-yl]acetamide]

IC50 [µM]	SMILES
≤ 0.1	C=CCN(CC=C)c1ncc(-c2cccc(Nc3nccc(C(F)(F)F)n3)c2)s1 [Example 25]
≤ 0.1	Cc1nn(C)c(C)c1CNc1ncc(-c2cccc(Nc3nccc(C(F)(F)F)n3)c2)s1 [Example 79]
≤ 0.1	OCC(CO)Nc1ncc(-c2cccc(Nc3nccc(C(F)(F)F)n3)c2)s1 [Example 11]
≤ 0.1	Cc1cc(Nc2nccc(C(F)(F)F)n2)cc(-c2cnc(NCCc3cnccn3)s2)c1 [Example 96]
≤ 0.1	CCC(CO)Nc1ncc(-c2cccc(Nc3nccc(C(F)(F)F)n3)c2)s1 (centres unmarked) [Example 10]
0.1 to 1	OC1(c2ccccc2)CCN(c2ncc(-c3cccc(Nc4nccc(C(F)(F)F)n4)c3)s2)C1 (centres unmarked) [Example 159]
≤ 0.1	FC(F)(F)c1ccnc(Nc2cccc(-c3cnc(N4CCCNCC4)s3)c2)n1 [Example 167]
≤ 0.1	Cc1cc(Nc2nccc(C(F)(F)F)n2)cc(-c2cnc(N3CCOCC3)s2)c1 [Example 122]
0.1 to 1	Cc1ccnc(Nc2cccc(-c3csc(N4CCC(C(N)=O)CC4)n3)c2)n1 [Example 232]
≤ 0.1	OC1CCN(c2ncc(-c3cccc(Nc4nccc(C(F)(F)F)n4)c3)s2)CC1 [Example 129]
≤ 0.1	CCCN(CCO)c1ncc(-c2cccc(Nc3nccc(C(F)(F)F)n3)c2)s1 [Example 52]
≤ 0.1	Cc1cc(Nc2nccc(C(F)(F)F)n2)cc(-c2cnc(N3CCC4(CCNC4)CC3)s2)c1 [Example 1, N-{3-[2-(2,8-diazaspiro[4.5]dec-8-yl)-1,3-thiazol-5-yl]-5-methylphenyl}-4-(trifluoromethyl)-pyrimidin-2-amine]
0.1 to 1	COc1ccc(CCNc2ncc(-c3cccc(Nc4nccc(C(F)(F)F)n4)c3)s2)cc1 [Example 54]
≤ 0.1	CCCCN(CCO)c1ncc(-c2cccc(Nc3nccc(C(F)(F)F)n3)c2)s1 [Example 6]
≤ 0.1	CC(=O)Nc1cc(Nc2nccc(C(F)(F)F)n2)cc(-c2cnc(N3CCCNC(=O)C3)s2)c1 [Example 184, N-(3-[2-(3-oxo-1,4-diazepan-1-yl)-1,3-thiazol-5-yl]-5-{[4-(trifluoromethyl)pyrimidin-2-yl]amino}phenyl)acetamide]
≤ 0.1	Cc1cc(Nc2nccc(C(F)(F)F)n2)cc(-c2cnc(N3CCn4cncc4C3)s2)c1 [Example 174]
≤ 0.1	CN1CCC(CNc2ncc(-c3cccc(Nc4nccc(C(F)(F)F)n4)c3)s2)C1 (centres unmarked) [Example 53]
≤ 0.1	Cc1cc(Nc2nccc(OC3CCNCC3)n2)cc(-c2cnc(N3CCCNC(=O)C3)s2)c1 [Example 215, 4-[5-(3-methyl-5-{[4-(piperidin-4-yloxy)pyrimidin-2-yl]amino}phenyl)-1,3-thiazol-2-yl]-1,4-diazepan-2-one]
≤ 0.1	CCCSc1ccnc(Nc2cc(C)cc(-c3cnc(N4CCCNC(=O)C4)s3)c2)n1 [Example 220]
≤ 0.1	CSCCC(CO)Nc1ncc(-c2cccc(Nc3nccc(C(F)(F)F)n3)c2)s1 (centres unmarked) [Example 80]

IC50 [µM]	SMILES
≤ 0.1	Cc1cc(CNc2ncc(-c3cccc(Nc4nccc(C(F)(F)F)n4)c3)s2)nn1C [Example 67]
≤ 0.1	O[C@@H]1CN(c2ncc(-c3cccc(Nc4nccc(C(F)(F)F)n4)c3)s2)C[C@@H]1O [Example 157]
1 to 10	C[C@@H](Nc1ncc(-c2cccc(Nc3nccc(C(F)(F)F)n3)c2)s1)C1CCCCC1 [Example 65]
≤ 0.1	FC(F)(F)c1ccnc(Nc2cccc(-c3cnc(NCc4c[nH]nn4)s3)c2)n1 [Example 41]
≤ 0.1	CN(CCO)c1ncc(-c2cc(N)cc(Nc3nccc(C(F)(F)F)n3)c2)s1 [Example 189]
1 to 10	OCCC1(c2ccc(Cl)cc2)CCN(c2ncc(-c3cccc(Nc4nccc(C(F)(F)F)n4)c3)s2)C1 (centres unmarked) [Example 160]
0.1 to 1	O=C(O)C1CCN(c2nc(-c3cccc(Nc4nccc(C(F)(F)F)n4)c3)cs2)CC1 [Example 229, 1-[4-(3-{[4-(trifluoromethyl)pyrimidin-2-yl]amino}phenyl)-1,3-thiazol-2-yl]piperidine-4-carboxylic acid]
≤ 0.1	CC(C)C(CO)Nc1ncc(-c2cccc(Nc3nccc(C(F)(F)F)n3)c2)s1 (centres unmarked) [Example 20]
≤ 0.1	CC(=O)OCC(=O)Nc1ncc(-c2cccc(Nc3nccc(C(F)(F)F)n3)c2)s1 [Example 182, 2-oxo-2-{[5-(3-{[4-(trifluoromethyl)pyrimidin-2-yl]amino}phenyl)-1,3-thiazol-2-yl]amino}ethyl acetate]
0.1 to 1	COC(=O)c1ccc(N(C)c2ncc(-c3cccc(Nc4nccc(C(F)(F)F)n4)c3)s2)cc1 [Example 30]
≤ 0.1	FC(F)(F)c1ccnc(Nc2cccc(-c3cnc(NCc4ccccn4)s3)c2)n1 [Example 37]
≤ 0.1	O=C1CN(c2ncc(-c3cccc(Nc4nccc(C(F)(F)F)n4)c3)s2)CCCN1 [Example 166]
≤ 0.1	CC(=O)N1CCCN(c2ncc(-c3cccc(Nc4nccc(C(F)(F)F)n4)c3)s2)CC1 [Example 169]
≤ 0.1	Cc1cc(Nc2nccc(C(F)(F)F)n2)cc(-c2cnc(NCCO)s2)c1 [Example 28]
≤ 0.1	Cc1cc(Nc2nccc(C(F)(F)F)n2)cc(-c2cnc(NCCc3c[nH]c4ccccc34)s2)c1 [Example 112]
≤ 0.1	Cc1cc(Nc2nccc(C(F)(F)F)n2)cc(-c2cnc(N3CCN4CCCC4C3)s2)c1 (centres unmarked) [Example 172]
≤ 0.1	OC1CCN(c2ncc(-c3cccc(Nc4nccc(C(F)(F)F)n4)c3)s2)C1 (centres unmarked) [Example 158]
0.1 to 1	Cc1cc(Nc2nccc(C(F)(F)F)n2)cc(-c2cnc(NCC(O)c3ccncc3)s2)c1 (centres unmarked) [Example 117]
≤ 0.1	Cc1cc(Nc2ncc(C3CC3)cn2)cc(-c2cnc(N3CCCNC(=O)C3)s2)c1 [Example 202]
